One series concerns Ba/F3 KIF5B-RET. As to the kind of experiment: Cytotoxicity assay (CellTiter-Glo), Ba/F3 KIF5B-RET. Format: cell-based. The note with it: Mus musculus, BaF3; cell viability, 72 hours, CTG.
The subject of a further series is Ba/F3 KIF5B-RET^V804M. As to the kind of experiment: Cytotoxicity assay (CellTiter-Glo), Ba/F3 KIF5B-RET V804M. Format: cell-based. The note with it: Mus musculus, BaF3; cell viability, 72 hours, CTG. A general note: Cellular ATP, detected with luciferase, serves as a proxy for viable cell number.
The nature of series [1]: Metabolic stability evaluation, liver microsome assay (RLM). The format is in vitro ADME, SD rat. The note with it: Sprague-Dawley, pH 7.4, rat liver microsomes 0.5 mg/mL, compound 1 μM, NADPH, 37° C.; for half-life at 1 μM: read-out: RLM t1/2. Here is the method:
(§1) Microsome assay: human liver microsomes (HLM): 0.5 mg/mL, Xenotech; rat liver microsomes (RLM): 0.5 mg/mL, Xenotech; mice liver microsomes (MLM): 0.5 mg/mL, Xenotech; coenzyme (NADPH/NADH): 1 mM, Sigma Life Science; magnesium chloride: 5 mM, 100 mM phosphate buffer (pH is 7.4).
(§2) Preparation of stock solution: a certain amount of powder of the example compound and the reference compound were accurately weighed, and dissolved to 5 mM with DMSO, respectively.
(§3) Preparation of phosphate buffer (100 mM, pH7.4): Pre-formulated 150 mL 0.5 M potassium dihydrogen phosphate and 700 mL 0.5 M dipotassium hydrogen phosphate solution were mixed, then the pH of the mixture was adjusted to 7.4 with 0.5 M dipotassium hydrogen phosphate solution. Before use, 5-fold dilution was made with ultra-pure water, and magnesium chloride was added to afford phosphate buffer (100 mM), which containing 100 mM potassium phosphate, 3.3 mM magnesium chloride, pH is 7.4.
(§4) NADPH regeneration system solution (containing 6.5 mM NADP, 16.5 mM G-6-P, 3 U/mL G-6-P D, 3.3 mM magnesium chloride) was prepared and placed on wet ice before use.
(§5) Preparation of stop solution: Acetonitrile solution containing 50 ng/mL propranolol hydrochloride and 200 ng/mL tolbutamide (internal standard). 25057.5 μL phosphate buffer (pH 7.4) was taken into a 50 mL centrifuge tube, and 812.5 μL human liver microsome was added, mixed well to afford liver microsome diluent with a protein concentration of 0.625 mg/mL. 25057.5 μL phosphate buffer (pH 7.4) was taken into a 50 mL centrifuge tube, and 812.5 μL SD rat liver microsome was added, respectively, mixed well to afford liver microsome diluent with a protein concentration of 0.625 mg/mL. 25057.5 μL phosphate buffer (pH 7.4) was taken into a 50 mL centrifuge tube, and 812.5 μL mice liver microsome was added, respectively, mixed well to afford liver microsome diluent with a protein concentration of 0.625 mg/mL.
(§6) Incubation of the sample: The stock solutions of the corresponding compounds were diluted to 0.25 mM with an aqueous solution containing 70% acetonitrile as working solutions for use. 398 μL of human liver microsome or rat liver microsome or mice liver microsome diluent was taken and added to a 96-well incubation plate (N=2), respectively, and 2 μL of 0.25 mM working solution was then added respectively, and mixed well.
(§7) Determination of metabolic stability: 300 μL of pre-chilled stop solution was added to each well of a 96-well deep well plate and the plate was placed on ice as a stop plate. The 96-well incubation plate and NADPH regeneration system were placed in a 37° C. water bath box, shook at 100 rpm, and pre-incubated for 5 min. 80 μL of incubation solution was taken from each well of the incubation plate and added to the stop plate, mixed well, and 20 μL of NADPH regeneration system solution was supplemented, the resulted solution was considered as sample at 0 min. Then 80 μL of NADPH regeneration system solution was added to each well of the incubation plate to start the reaction and started timing. The reaction concentration of the corresponding compound is 1 μM, and the protein concentration is 0.5 mg/mL. 100 μL reaction solution was taken at 10, 30, 90 min of reaction, respectively, and added into stop plate, the reaction was stopped with 3 min vortex. The stop plate was centrifuged at 5000×g, 4° C. for 10 min. 100 μL of supernatant was taken to a 96-well plate where 100 μL of distilled water was added in advance, mixed well, sample analysis was subjected by LC-MS/MS.
(§8) Data analysis: LC-MS/MS system was used to detect peak area of corresponding compound and internal standard, peak area ratio of compound and internal standard was calculated.
(§9) [formula] t1/2(min); CLint(μL/min/mg).
(In general: Microsomes from liver hold many membrane-bound enzymes, among them those of drug oxidation.)

For another series, the system named is Ba/F3 parental. The series can be described thus: cells. The note with it: Mus musculus, BaF3, 72 h, read-out: IC50 (nM) Ba/F3 parental.
The nature of series [2]: Metabolic stability evaluation, liver microsome assay (MLM). The format is in vitro ADME. The note with it: mouse, mouse liver microsomes, pH 7.4, mice liver microsomes 0.5 mg/mL, compound 1 μM, NADPH, 37° C.; for half-life at 1 μM: read-out: MLM t1/2. Here is the method: as §1, §2, §3, §4, §5, §6, §7, §8, §9
A short description of series [3]: Metabolic stability evaluation, liver microsome assay (HLM). The note with it: pH 7.4, human liver microsomes 0.5 mg/mL, compound 1 μM, NADPH, 37° C.; for half-life at 1 μM: read-out: HLM t1/2. The format is in vitro ADME. Here is the method: as §1, §2, §3, §4, §5, §6, §7, §8, §9

Each structure is given as a SMILES string.

As usually defined, the microsomal CLint is the capacity of the preparation to metabolise the compound, expressed as a volume cleared per time. Low values mean greater metabolic stability, high ones faster metabolism. Regarding `[2H]C([2H])([2H])Oc1ccc(CN2C3CC2CN(c2ccc(-c4cc(OCC(C)(C)O)cn5ncc(C#N)c45)cn2)C3)cn1` [Example 12, 6-(2-hydroxy-2-methylpropoxy)-4-(6-(6-((6-(methoxy-d3)pyridin-3-yl)methyl)-3,6-diazabicyclo[3.1.1]heptan-3-yl)pyridin-3-yl)pyrazolo[1,5-a]pyridine-3-carbonitrile], the IC50 with Ba/F3 KIF5B-RET is 16 nM; in the series on Ba/F3 KIF5B-RET^V804M, 45.2 nM; with Ba/F3 parental, 5930 nM. Besides, the values for the microsomal CLint at 1 μM in series [1], in series [2] and in series [3] were 10.1 µL/min/mg, 44.9 µL/min/mg and 93.1 µL/min/mg, respectively. Also, the values for the half-life at 1 μM in series [1], in series [2] and in series [3] were 137 min, 30.8 min and 14.9 min, respectively.

Turning to `[2H]C([2H])([2H])Oc1ccc(C([2H])([2H])N2C3CC2CN(c2ccc(-c4cc(OCC(C)(C)O)cn5ncc(C#N)c45)cn2)C3)cn1` [Example 13, 6-(2-hydroxy-2-methylpropoxy)-4-(6-(6-((6-(methoxy-d3)pyridin-3-yl)methyl-d2)-3,6-diazabicyclo[3.1.1]heptan-3-yl)pyridin-3-yl)pyrazolo[1,5-a]pyridine-3-carbonitrile], the IC50 with Ba/F3 KIF5B-RET was 23.5 nM; in the series on Ba/F3 KIF5B-RET^V804M it was 90 nM; in the series on Ba/F3 parental, > 10000 nM. Moreover, the microsomal CLint at 1 μM in series [1] amounted to 10.8 µL/min/mg; in series [2] it was 42.8 µL/min/mg; in series [3], 92.2 µL/min/mg. In addition, the half-life at 1 μM in series [1] was 128 min; in series [2] it was 32.4 min; in series [3] it was 15 min.

For the compound `[2H]C([2H])([2H])Oc1ccc(CN2C3CC2CN(c2ccc(-c4cc(-c5cnn(C([2H])([2H])[2H])c5)cn5ncc(C#N)c45)cn2)C3)cn1` [Example 4, 4-(6-(6-((6-(methoxy-d3)pyridin-3-yl)methyl)-3,6-diazabicyclo[3.1.1]heptan-3-yl)pyridin-3-yl)-6-(1-(methyl-d3)-1H-pyrazol-4-yl)pyrazolo[1,5-a]pyridine-3-carbonitrile], the microsomal CLint at 1 μM was found to be 49.1 µL/min/mg in series [1], 63.5 µL/min/mg in series [2] and 97.9 µL/min/mg in series [3]. Moreover, the results for the half-life at 1 μM in series [1], in series [2] and in series [3] were 28.2 min, 21.8 min and 14.2 min, respectively.

In the case of `[2H]C([2H])(c1ccc(OC)nc1)N1C2CC1CN(c1ccc(-c3cc(OC[C@H]4CNCCO4)cn4ncc(C#N)c34)cn1)C2` [Example 8], the figures for the microsomal CLint at 1 μM in series [1], in series [2] and in series [3] were 5.3 µL/min/mg, 5.8 µL/min/mg and 10.6 µL/min/mg, respectively. The half-life at 1 μM in series [1] stood at 263 min; in series [2], 237 min; in series [3], 131 min. Besides, the IC50 with Ba/F3 parental was determined as 3360 nM.

Take `[2H]C([2H])([2H])Oc1ccc(C([2H])([2H])N2C3CC2CN(c2ccc(-c4cc(-c5cnn(C)c5)cn5ncc(C#N)c45)cn2)C3)cn1` [Example 3, 4-(6-(6-((6-(methoxy-d3)pyridin-3-yl)methyl-d2)-3,6-diazabicyclo[3.1.1]heptan-3-yl)pyridin-3-yl)-6-(1-methyl-1H-pyrazol-4-yl)pyrazolo[1,5-a]pyridine-3-carbonitrile]: the values for the microsomal CLint at 1 μM in series [1], in series [2] and in series [3] were 55.3 µL/min/mg, 68.8 µL/min/mg and 85.6 µL/min/mg, respectively. Moreover, the figures for the half-life at 1 μM in series [1], in series [2] and in series [3] were 25.1 min, 20.2 min and 16.2 min, respectively.

On to `[2H]C([2H])([2H])n1cc(-c2cc(-c3ccc(N4CC5CC(C4)N5Cc4ccc(OC)nc4)nc3)c3c(C#N)cnn3c2)cn1` [Example 7, 4-(6-(6-((6-methoxypyridin-3-yl)methyl)-3,6-diazabicyclo[3.1.1]heptan-3-yl)pyridin-3-yl)-6-(1-(methyl-d3)-1H-pyrazol-4-yl)pyrazolo[1,5-a]pyridine-3-carbonitrile], for which the microsomal CLint at 1 μM in series [1] came out at 11.3 µL/min/mg; in series [2], 76 µL/min/mg; in series [3], 11.1 µL/min/mg. In addition, the half-life at 1 μM in series [1] worked out at 122 min; in series [2], 18.2 min; in series [3], 124 min.

With `[2H]C([2H])([2H])Oc1ccc(C([2H])([2H])N2C3CC2CN(c2ccc(-c4cc(-c5cnn(C([2H])([2H])[2H])c5)cn5ncc(C#N)c45)cn2)C3)cn1` [Example 6, 4-(6-(6-((6-(methoxy-d3)pyridin-3-yl)methyl-d2)-3,6-diazabicyclo[3.1.1]heptan-3-yl)pyridin-3-yl)-6-(1-(methyl-d3)-1H-pyrazol-4-yl)pyrazolo[1,5-a]pyridine-3-carbonitrile], the results for the microsomal CLint at 1 μM in series [1], in series [2] and in series [3] were 47.3 µL/min/mg, 65 µL/min/mg and 112 µL/min/mg, respectively. In addition, the half-life at 1 μM in series [1] worked out at 29.3 min; in series [2], 21.3 min; in series [3], 12.4 min.

Take `[2H]C([2H])(c1ccc(OC)nc1)N1C2CC1CN(c1ccc(-c3cc(-c4cnn(C([2H])([2H])[2H])c4)cn4ncc(C#N)c34)cn1)C2` [Example 5, 4-(6-(6-((6-methoxypyridin-3-yl)methyl-d2)-3,6-diazabicyclo[3.1.1]heptan-3-yl)pyridin-3-yl)-6-(1-(methyl-d3)-1H-pyrazol-4-yl)pyrazolo[1,5-a]pyridine-3-carbonitrile]: the microsomal CLint at 1 μM in series [1] is 37.9 µL/min/mg; in series [2], 75.8 µL/min/mg; in series [3], 83.2 µL/min/mg. Besides, the half-life at 1 μM was found to be 36.6 min in series [1], 18.3 min in series [2] and 16.7 min in series [3].

On to `[2H]C([2H])([2H])Oc1ccc(CN2C3CC2CN(c2ccc(-c4cc(-c5cnn(C)c5)cn5ncc(C#N)c45)cn2)C3)cn1` [Example 1, 4-(6-(6-((6-(methoxy-d3)pyridin-3-yl)methyl)-3,6-diazabicyclo[3.1.1]heptan-3-yl)pyridin-3-yl)-6-(1-methyl-1H-pyrazol-4-yl)pyrazolo[1,5-a]pyridine-3-carbonitrile], for which the microsomal CLint at 1 μM in series [1] stood at 51.5 µL/min/mg; in series [2], 73.2 µL/min/mg; in series [3], 87.5 µL/min/mg. Moreover, the half-life at 1 μM in series [1] worked out at 26.9 min; in series [2], 18.9 min; in series [3] it was 15.8 min.

Take `[2H]C([2H])(c1ccc(OC)nc1)N1C2CC1CN(c1ccc(-c3cc(-c4cnn(C)c4)cn4ncc(C#N)c34)cn1)C2` [Example 2, 4-(6-(6-((6-methoxypyridin-3-yl)methyl-d2)-3,6-diazabicyclo[3.1.1]heptan-3-yl)pyridin-3-yl)-6-(1-methyl-1H-pyrazol-4-yl)pyrazolo[1,5-a]pyridine-3-carbonitrile]: the microsomal CLint at 1 μM was determined as 35.1 µL/min/mg in series [1], 78.3 µL/min/mg in series [2] and 105 µL/min/mg in series [3]. Moreover, the half-life at 1 μM was determined as 39.5 min in series [1], 17.7 min in series [2] and 13.2 min in series [3].

Values taken from patent US12129266B2, “Substituted pyrazolo[1,5-a]pyridine compound, composition containing the same and use thereof” (Shenzhen TargetRx, Inc., priority 2018, dated 2024).
